Measurements published in ChEMBL document CHEMBL4257227, “Deubiquitinase inhibitors and methods for use of the same” (2016).
The source made the active and inactive calls.

Assays:
[1] = target: Ubiquitin carboxyl-terminal hydrolase 9X (Homo sapiens) (UniProt Q93008); test: Inhibition of USP9x in Vemurafenib resistant human A375 cells assessed as STAT3 phosphorylation
[2] = test system: A-375; test: Antitumor activity against human A375 cells xenografted in NOD/SCID/gamma-2 knockout mouse assessed as inhibition of tumor growth at 7.5 to 15 mg/kg, ip once per day for 8 days; assay type: functional, organism-based
[3] = test system: MM1.S; test: Antitumor activity against human MM1S cells xenografted in NOD/SCID/gamma-2 knockout mouse assessed as inhibition of tumor volume at 5 to 20 mg/kg, ip once per day for 11 days; assay type: functional, organism-based
[4] = test system: NCI-H929; test: Induction of apoptosis in human NCI-H929 cells at 0.3125 to 5 uM incubated for 24 hrs by annexin V staining based flow cytometry; assay type: functional, cell-based
[5] = Plasma concentration in Balb/c mouse at 30 mg/kg, po after 7 hrs by LC-MS analysis; assay type: ADME, organism-based
[6] = test system: La Crosse virus; test: Antiviral activity against La Crosse virus virus infected in human Be2-c cells assessed as reduction in viral plaque forming units; assay type: functional, organism-based
[7] = test system: A-375; test: Antitumor activity against human A375 cells xenografted in NOD/SCID/gamma-2 knockout mouse assessed as inhibition of tumor growth at 15 mg/kg, ip once per day for 8 days; assay type: functional, organism-based
[8] = target: Ubiquitin carboxyl-terminal hydrolase 9X (Homo sapiens) (UniProt Q93008); test: Inhibition of Usp9x in primary tumor cells from patient with plasma cell leukemia assessed as reduction in MCL-1 protein levels at 5 uM incubated for 30 to 240 mins by SDS-PAGE and immunoblotting; assay type: cell-based
[9] = Plasma concentration in Balb/c mouse at 30 mg/kg, po after 0.5 hrs by LC-MS analysis; assay type: ADME, organism-based
[10] = test system: Mus musculus; test: Toxicity in human A375 cells xenografted NOD/SCID/gamma-2 knockout mouse assessed effect on body weight at 7.5 mg/kg, ip once per day for 8 days; assay type: functional, organism-based
[11] = test system: Mus musculus; test: Toxicity in human MM1S cells xenografted NOD/SCID/gamma-2 knockout mouse assessed effect on body weight at 15 to 20 mg/kg, ip once per day for 14 days; assay type: functional, organism-based
[12] = Plasma concentration in Balb/c mouse at 10 mg/kg, iv after 7 hrs by LC-MS analysis; assay type: ADME, organism-based
[13] = test system: Mus musculus; test: Toxicity in human A375 cells xenografted NOD/SCID/gamma-2 knockout mouse assessed as induction of body weight loss at 7.5 to 15 mg/kg, ip once per day for 8 days; assay type: functional, organism-based
[14] = target: T1, Ubiquitin carboxyl-terminal hydrolase 5 (Homo sapiens) (UniProt P45974); test: Inhibition of USP5 in Vemurafenib sensitive human A375 cells assessed as reduction in ERK phosphorylation
T1 sequence (whole entry): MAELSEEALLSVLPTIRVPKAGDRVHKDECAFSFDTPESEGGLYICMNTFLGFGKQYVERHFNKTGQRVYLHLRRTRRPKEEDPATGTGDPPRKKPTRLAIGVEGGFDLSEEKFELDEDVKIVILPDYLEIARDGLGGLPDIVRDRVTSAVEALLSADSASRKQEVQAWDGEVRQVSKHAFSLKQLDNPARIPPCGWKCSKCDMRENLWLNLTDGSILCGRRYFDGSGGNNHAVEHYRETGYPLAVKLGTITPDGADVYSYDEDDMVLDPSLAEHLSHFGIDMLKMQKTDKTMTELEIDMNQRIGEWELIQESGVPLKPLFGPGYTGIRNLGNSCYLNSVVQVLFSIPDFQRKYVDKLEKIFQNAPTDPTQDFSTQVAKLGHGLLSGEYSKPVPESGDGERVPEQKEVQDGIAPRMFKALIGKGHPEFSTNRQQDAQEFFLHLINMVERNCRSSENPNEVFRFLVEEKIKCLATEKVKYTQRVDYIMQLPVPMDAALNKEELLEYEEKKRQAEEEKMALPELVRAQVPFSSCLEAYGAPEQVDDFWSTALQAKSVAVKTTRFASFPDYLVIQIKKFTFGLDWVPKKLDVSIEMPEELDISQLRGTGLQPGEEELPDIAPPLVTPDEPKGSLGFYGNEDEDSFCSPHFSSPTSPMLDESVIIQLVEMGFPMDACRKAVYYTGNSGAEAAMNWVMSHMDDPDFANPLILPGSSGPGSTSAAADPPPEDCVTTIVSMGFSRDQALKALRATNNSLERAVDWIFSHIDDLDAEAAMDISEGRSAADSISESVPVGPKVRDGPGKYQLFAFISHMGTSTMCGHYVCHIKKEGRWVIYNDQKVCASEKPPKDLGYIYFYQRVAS

[15] = target: Ubiquitin carboxyl-terminal hydrolase 9X (Homo sapiens) (UniProt Q93008); test: Inhibition of USP9x in Vemurafenib sensitive human A375 cells assessed as STAT3 phosphorylation
[16] = test system: A375/R; test: Induction of apoptosis in human A375R cells assessed as induction of caspase-8 activation; assay type: functional, cell-based
[17] = target: Ubiquitin carboxyl-terminal hydrolase 9X (Homo sapiens) (UniProt Q93008); test: Inhibition of USP9x in Vemurafenib resistant human A375 cells
[18] = AUClast in Balb/c mouse at 10 mg/kg, iv by LC-MS analysis; assay type: ADME, organism-based; design: dose 10 mg/kg, route intravenous, time 0 - last; details: in vivo
[19] = target: T1, Ubiquitin carboxyl-terminal hydrolase 5 (Homo sapiens); test: Inhibition of USP5 in Vemurafenib sensitive human A375 cells
[20] = test system: A-375; test: Induction of p53 protein expression in Vemurafenib sensitive human A375 cells; assay type: functional, cell-based
[21] = Plasma concentration in Balb/c mouse at 10 mg/kg, iv after 0.5 hrs by LC-MS analysis; assay type: ADME, organism-based
[22] = AUClast in Balb/c mouse at 30 mg/kg, po by LC-MS analysis; assay type: ADME, organism-based; design: dose 30 mg/kg, route oral, time 0 - last; details: in vivo
[23] = test system: A-375; test: Antitumor activity against human A375 cells xenografted in NOD/SCID/gamma-2 knockout mouse assessed as inhibition of tumor growth at 7.5 to 15 mg/kg, ip once per day for 8 days followed by drug cessation and measured 10 days after drug cessation; assay type: functional, organism-based
[24] = Plasma concentration in Balb/c mouse at 10 mg/kg, iv after 4 hrs by LC-MS analysis; assay type: ADME, organism-based
[25] = test system: Murine norovirus; test: Antiviral activity against Murine norovirus infected in Balb/c bone marrow derived macrophages assessed as reduction in viral plaque forming units; assay type: functional, organism-based
[26] = test system: MM1.S; test: Antitumor activity against human MM1S cells xenografted in NOD/SCID/gamma-2 knockout mouse assessed as inhibition of tumor growth at 5 to 20 mg/kg, ip once per day for 14 days; assay type: functional, organism-based
[27] = test system: MM1.S; test: Antitumor activity against human MM1S cells xenografted in NOD/SCID/gamma-2 knockout mouse assessed as inhibition of tumor growth at 2.5 to 10 mg/kg, ip once per day for 14 days; assay type: functional, organism-based
[28] = test system: Sindbis virus; test: Antiviral activity against Sindbis virus infected in African green monkey Vero cells assessed as reduction in viral plaque forming units; assay type: functional, organism-based
[29] = target: Ubiquitin carboxyl-terminal hydrolase 9X (Homo sapiens) (UniProt Q93008); test: Inhibition of Usp9x in human A375 cells; assay type: cell-based
[30] = test system: A-375; test: Induction of p53 protein expression in Vemurafenib resistant human A375 cells; assay type: functional, cell-based
[31] = target: T1, Ubiquitin carboxyl-terminal hydrolase 5 (Homo sapiens); test: Inhibition of USP5 in Vemurafenib resistant human A375 cells
[32] = test system: CD34-positive blood stem/progenitor cell; test: Induction of apoptosis in human CD34+ cells at 0.3125 to 5 uM incubated for 24 hrs by annexin V staining based flow cytometry; details: cd34-positive (myeloid/lymphoid) cell
[33] = Plasma concentration in Balb/c mouse at 30 mg/kg, po after 4 hrs by LC-MS analysis; assay type: ADME, organism-based

Sequence of Ubiquitin carboxyl-terminal hydrolase 9X (Homo sapiens) (Q93008 whole entry): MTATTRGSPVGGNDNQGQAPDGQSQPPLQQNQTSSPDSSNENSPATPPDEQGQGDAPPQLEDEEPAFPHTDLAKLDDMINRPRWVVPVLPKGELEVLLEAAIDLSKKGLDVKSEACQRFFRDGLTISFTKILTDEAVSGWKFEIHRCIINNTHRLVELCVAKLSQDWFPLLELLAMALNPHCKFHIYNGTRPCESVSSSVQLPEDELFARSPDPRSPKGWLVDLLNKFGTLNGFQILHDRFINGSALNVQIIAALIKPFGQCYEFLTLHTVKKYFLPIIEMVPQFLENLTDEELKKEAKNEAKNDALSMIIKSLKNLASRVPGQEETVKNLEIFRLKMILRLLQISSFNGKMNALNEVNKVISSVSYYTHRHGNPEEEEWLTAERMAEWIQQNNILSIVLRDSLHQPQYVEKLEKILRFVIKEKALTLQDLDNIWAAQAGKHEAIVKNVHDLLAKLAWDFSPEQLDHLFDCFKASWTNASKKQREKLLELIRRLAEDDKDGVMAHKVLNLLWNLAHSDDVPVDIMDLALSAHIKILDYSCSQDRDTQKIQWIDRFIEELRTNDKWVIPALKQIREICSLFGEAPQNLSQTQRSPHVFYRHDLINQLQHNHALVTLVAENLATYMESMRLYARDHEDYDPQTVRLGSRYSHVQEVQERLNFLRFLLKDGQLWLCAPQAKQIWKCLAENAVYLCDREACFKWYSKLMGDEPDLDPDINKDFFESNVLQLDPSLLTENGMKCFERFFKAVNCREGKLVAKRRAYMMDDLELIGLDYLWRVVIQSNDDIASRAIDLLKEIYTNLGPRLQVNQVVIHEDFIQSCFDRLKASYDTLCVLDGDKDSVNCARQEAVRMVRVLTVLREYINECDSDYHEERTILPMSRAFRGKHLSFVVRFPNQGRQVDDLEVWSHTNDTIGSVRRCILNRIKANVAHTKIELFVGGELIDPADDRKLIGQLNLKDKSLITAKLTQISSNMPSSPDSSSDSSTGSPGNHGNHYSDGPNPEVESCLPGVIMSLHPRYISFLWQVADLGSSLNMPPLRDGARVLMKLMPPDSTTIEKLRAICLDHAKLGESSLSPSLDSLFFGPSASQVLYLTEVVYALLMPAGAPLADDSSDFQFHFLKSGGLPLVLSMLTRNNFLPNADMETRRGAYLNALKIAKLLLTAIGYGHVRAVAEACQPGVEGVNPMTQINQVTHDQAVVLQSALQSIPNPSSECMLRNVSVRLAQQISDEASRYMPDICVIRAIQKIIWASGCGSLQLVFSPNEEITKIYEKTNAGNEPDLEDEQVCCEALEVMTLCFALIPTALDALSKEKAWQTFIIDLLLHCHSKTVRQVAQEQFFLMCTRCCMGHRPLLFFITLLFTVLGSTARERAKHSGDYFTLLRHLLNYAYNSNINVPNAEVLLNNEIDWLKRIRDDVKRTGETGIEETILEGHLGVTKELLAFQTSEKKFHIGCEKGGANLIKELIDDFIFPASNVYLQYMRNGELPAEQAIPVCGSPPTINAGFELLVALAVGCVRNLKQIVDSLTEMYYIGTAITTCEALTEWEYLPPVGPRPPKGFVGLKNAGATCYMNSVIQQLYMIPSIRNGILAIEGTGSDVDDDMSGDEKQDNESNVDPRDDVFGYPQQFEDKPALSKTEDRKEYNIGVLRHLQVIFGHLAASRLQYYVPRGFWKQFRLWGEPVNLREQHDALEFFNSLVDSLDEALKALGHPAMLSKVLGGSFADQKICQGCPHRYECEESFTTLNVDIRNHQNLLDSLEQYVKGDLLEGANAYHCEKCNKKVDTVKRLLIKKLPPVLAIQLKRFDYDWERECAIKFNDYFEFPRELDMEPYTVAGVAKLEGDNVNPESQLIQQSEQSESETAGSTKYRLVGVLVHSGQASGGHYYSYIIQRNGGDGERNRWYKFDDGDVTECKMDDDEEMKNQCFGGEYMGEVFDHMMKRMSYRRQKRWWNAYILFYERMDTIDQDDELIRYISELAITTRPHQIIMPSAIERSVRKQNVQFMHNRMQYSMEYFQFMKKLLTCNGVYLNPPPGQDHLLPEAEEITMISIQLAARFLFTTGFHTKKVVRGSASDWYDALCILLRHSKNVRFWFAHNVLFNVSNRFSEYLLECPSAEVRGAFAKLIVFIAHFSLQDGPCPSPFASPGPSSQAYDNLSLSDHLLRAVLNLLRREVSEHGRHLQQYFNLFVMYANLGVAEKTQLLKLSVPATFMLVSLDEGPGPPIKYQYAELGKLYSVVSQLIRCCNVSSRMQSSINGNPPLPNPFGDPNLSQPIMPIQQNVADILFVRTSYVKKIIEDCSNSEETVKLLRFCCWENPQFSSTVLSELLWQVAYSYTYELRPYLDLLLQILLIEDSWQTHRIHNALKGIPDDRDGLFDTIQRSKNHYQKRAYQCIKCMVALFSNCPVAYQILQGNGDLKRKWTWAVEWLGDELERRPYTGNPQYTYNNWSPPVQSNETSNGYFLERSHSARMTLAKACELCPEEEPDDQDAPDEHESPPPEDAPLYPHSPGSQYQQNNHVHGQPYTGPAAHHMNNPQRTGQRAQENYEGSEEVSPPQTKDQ

CCCC(NC(=O)/C(C#N)=C/c1nc(Cl)ccc1Cl)c1ccc(OCCN2CCOCC2)cc1 (stereo not drawn)
1220 to 1880 ng/mL: concentration at 0.5 h [21]
inactive: Activity [10] Not toxic | Activity [13] Not toxic | Activity [20] | TGI [23] | Activity [30]
Non-Toxic: Activity [32]
291 to 349 ng·h/mL: AUC(0-t) [22]
active: inhibition [1] | TGI [2] | Activity [3] | Activity [4] | Activity [6] | TGI [7] | inhibition [8] | Activity [11] Toxic | inhibition [14] | inhibition [15] | Activity [16] | inhibition [17] | inhibition [19] | Activity [25] | TGI [26] | TGI [27] | Activity [28] | inhibition [29] | inhibition [31]
16.1 to 37.6 ng/mL: concentration at 7 h [5]
38.6 to 208 ng/mL: concentration at 7 h [12]
126 to 289 ng/mL: concentration at 4 h [24]
60.8 to 78.7 ng/mL: concentration at 0.5 h [9]
3570 to 3730 ng·h/mL: AUC(0-t) [18]
44.5 to 57.1 ng/mL: concentration at 4 h [33]
